Measured values from patent US20250009924A1, “Indane Derivatives for Malodor Counteraction” (Firmenich SA, priority 2015, published 2025).

What was measured:
[1] = Binary mixtures of lily-of-the-valley odorants with malodor, perception of fecal and animal note; details: the fecal and animal note remains clearly perceptible
[2] = test system: indole-responsive olfactory sensory neurons; assay: Ca2+ imaging of olfactory sensory neurons, antagonist screening against indole; format: cell-based; details: 25 μM indole + 125 μM MOC compound as binary mixture; percentage of malodor-responsive OSN population inhibited by more than 10% (modulation values less than −10%)
Method: (§1) Identification of malodor-sensitive olfactory neurons was performed as previously described in WO 2014/210582. Identification of antagonist compounds that inhibit the response of malodor-sensitive olfactory neurons to the target malodor was performed according to Kajiya et al (2001) (K. Kajiya, et al in The Journal of Neuroscience, (2001) 21, 6018-6025).
(§2) Olfactory sensory neurons were stimulated with 25 μM indole (MO) and 125 μM MOC either alone or as a binary mixture. By comparing the peak value of the calcium-induced fluorescence ratio change induced by exposure to the target MO compound to that of the mixture of MO+MOC candidate, a “modulation value” was calculated. The larger the difference between the two peak values, the greater the magnitude of the modulation value. If the peak value for the MO was larger than that of the MO+MOC, the modulation value was negative, whilst the inverse produced positive modulation values. A modulation value was calculated for each cell responding to the positive-control stimulus forskolin (Pos) and the MO compound, but not to the negative-control buffer stimulus (Neg). For each candidate MOC compound, a baseline ‘modulation value’ was obtained by repeated stimulations of olfactory neurons with indole alone (left box plot in B, D, F). The percentage of target malodor-responsive cells with negative modulation values less than −10% was plotted on a bar chart. Population data are represented as box plots, where the interquartile range (25-75th percentiles) of olfactory sensory neuron modulation is contained within the box, with the median indicated by the black bar and the 95th percentile by the arms.
Olfactory sensory neurons were stimulated with 25 μM indole malodor and 125 μM candidate MOC compound as a binary mixture.

[3] = test system: Skatole OSNs (olfactory sensory neurons); assay: Ca2+ imaging of olfactory sensory neurons, antagonist screening against skatole; format: cell-based; details: 50 μM skatole + 250 μM MOC compound as binary mixture; percentage of malodor-responsive OSN population inhibited by more than 10%
Method: as §1, §2
Olfactory sensory neurons were stimulated with 50 μM skatole malodor and 250 μM candidate MOC compound as a binary mixture.

[4] = test system: DMTS OSNs (olfactory sensory neurons); assay: Ca2+ imaging of olfactory sensory neurons, antagonist screening against dimethyl trisulfide (DMTS); format: cell-based; details: 50 μM DMTS + 250 μM MOC compound as binary mixture; percentage of malodor-responsive OSN population inhibited by more than 10%
Method: as §1, §2
Olfactory sensory neurons were stimulated with 50 μM DMTS malodor and 250 μM candidate MOC compound as a binary mixture.

[5] = Air dilution olfactometry sensory panel, indole vs indole + compound; format: in vivo, human; set-up: key to Freshness score: linear labeled scale, no freshness to very fresh; key to Animal/Fecal/Tar score: linear labeled scale, no to very animal/fecal/tar; key to Pleasantness score: linear labeled scale, very unpleasant to very pleasant; details: for Freshness score / Pleasantness score / Animal/Fecal/Tar score: indole + compound at individualized iso-intense concentrations; for Freshness score: indole alone 2.2 ± 0.2; for Pleasantness score: indole alone 2.6 ± 0.2; for Animal/Fecal/Tar score: linear labeled scale, indole alone 6.9 ± 0.2; for Animal/Fecal/Tar Reduction: indole + compound vs indole alone, iso-intense levels
Method: Air dilution olfactometry was used to measure all psychophysical data of individual and mixed odorants. Odorized flows of air with precisely set concentrations were prepared by the evaporation of a known flux of odorant in a determined flow of air. The flux of odorant was delivered through a microsyringe operated by a calibrated micromotor into a heated vessel under a steady nitrogen flow. The odorant was vaporized and swept away by the nitrogen, and this primary flow was later diluted with humidified air to the desired concentration. Odorants can be presented one by one in olfactometers (see as a reference “Multidimensional visualization of physical and perceptual data leading to a creative approach in fragrance development”, C. Vuilleumier, M. van de Waal, H. Fontannaz, I. Cayeux and P. A. Rebetez, in Perfumer & Flavourist, 33, 55 (2008)); alternatively, a machine blending up to 12 flows of odorants in variable and adjustable proportions could be used. A sniffing outlet delivered a continuous and adjustable odorized air flow. The upper working limit was determined by the vapor pressure of the odorants at room temperature. The odorized flow was delivered at a temperature of 26° C., close to the temperature within the nose. The combination of air (540 l/h) and nitrogen (60 l/h) represented a total gas flow of 600 l/h with a relative humidity of 50%. The speed of injection of the solutions in the evaporation chamber was modulated and controlled for each subject and adjusted to obtain a medium perceived intensity (see above reference, for instance FIG. 4).
Standardized psychophysical procedures were used to determine olfactory detection thresholds (triangle testing) or perceived intensity, after a training period (see above reference).
A method was designed as an iterative process to obtain dose-response relationship and odor detection threshold of perfumery ingredients or malodorants with a minimum number of experiments (see FIG. 5 in the above reference).
FIG. 2 reports the radar plot of indole alone and indole+compound 1 obtained with a panel of 13 persons using a sensory protocol to evaluate the potential antagonists versus indole. The protocol involves two steps: • Step 1: the participants evaluated the tested ingredients and indole independently to adjust their individualized concentrations by changing the rate of injection (see above description and reference) to elicit a medium intensity perception for each chemical. These concentrations, corresponding to iso-intense levels, were applied in the second step of the process. The range of concentrations to be submitted to subjects was determined from dose-response relationships for the selected ingredients and indole. In the present experiment the molar ratio Compound 1/indole varied according to the individuals from about 1/1 to 10/1 (typical preferred individual range is between 2.5/1 and 4.5/1). • Step 2: Blind sensory evaluations were set; no information was disclosed to the participants on the submitted odorous stimuli. The subjects had to evaluate first indole alone at its individualized concentration and rate the following three descriptors on a linear labeled scale: • Pleasantness (From «Very unpleasant» to «Very pleasant») • Freshness (From «No Freshness» to «Very fresh») • Malodor character: Animal/Fecal/Tar (From «No . . . » to «Very . . . »)
The next submission, 30 seconds after the previous one to avoid odor adaptation, involved the simultaneous injection of indole and of the tested ingredient at individualized concentrations. The same descriptors were rated.

Row | Compound | Proportion of Indole OSNs [2] | Freshness score [5] | Pleasantness score [5] | Animal/Fecal/Tar score [5] | Animal/Fecal/Tar Reduction [5] | further results
1 | CC1(C)CCc2ccc(CCC=O)cc21 [3-(3,3-dimethyl-2,3-dihydro-1h-inden-5-yl)propanal] | – | – | – | – | – | malodor reduction (reduction of the negative odor character) [1]: fail to produce such malodor reduction
2 | CC(C=O)Cc1ccc(C(C)(C)C)cc1 (stereo not drawn) [3-(4-tert-butylphenyl)-2-methylpropanal] | – | – | – | – | – | malodor reduction (reduction of the negative odor character) [1]: fail to produce such malodor reduction
3 | CC(C)(C)c1ccc(CCC=O)cc1 [3-(4-tert-butylphenyl)propanal] | – | – | – | – | – | malodor reduction (reduction of the negative odor character) [1]: fail to produce such malodor reduction
4 | Cc1ccc2c(c1)CC(C)(CO)C2 (stereo not drawn) [Compound 1, 2,5-dimethyl-2-indanemethanol] | 56% | 6.7 ± 0.9 | 7.8 ± 0.7 | 1.3 ± 0.5 | 81 percentage | Proportion of Skatole OSNs [3]: 82%; Proportion of DTMS OSNs [4]: 69%
5 | COCC1(C)Cc2ccc(C)cc2C1 (stereo not drawn) [Compound 2, (2,5-dimethyl-2,3-dihydro-1H-inden-2-yl)methyl methyl ether] | 43% | 4.7 ± 1.3 | 3.9 ± 0.8 | 3.5 ± 1.5 | 50 percentage | –
6 | CC1(CO)Cc2ccccc2C1 [Compound 3, (2-methyl-2,3-dihydro-1H-inden-2-yl)methanol] | 41% | 5.2 ± 1.5 | 6.0 ± 1.4 | 3.1 ± 1.3 | 55 percentage | –
7 | Cc1ccc2c(c1)CC(CO)C2 (stereo not drawn) [Compound 4, (5-methyl-2,3-dihydro-1H-inden-2-yl)methanol] | 41% | 6.6 ± 1.5 | 7.2 ± 1.2 | 2.1 ± 1.1 | 70 percentage | –
8 | CC(=O)OCC1(C)Cc2ccccc2C1 [Compound 5, (2-methyl-2,3-dihydro-1H-inden-2-yl)methyl acetate] | 77% | 5.2 ± 1.2 | 5.7 ± 1.1 | 2.7 ± 1.0 | 61 percentage | Proportion of Skatole OSNs [3]: 87%; Proportion of DTMS OSNs [4]: 82%
9 | CC(=O)C1(C)Cc2ccc(C)cc2C1 (stereo not drawn) [Compound 6, 1-(2,5-dimethyl-2,3-dihydro-1H-inden-2-yl)ethanone] | 69% | 5.2 ± 1.6 | 5.8 ± 1.4 | 2.2 ± 1.2 | 68 percentage | Proportion of Skatole OSNs [3]: 92%; Proportion of DTMS OSNs [4]: 94%
10 | Cc1ccc2c(c1)CCC(C)(CO)C2 (stereo not drawn) [Compound 7, (2,6-dimethyl-1,2,3,4-tetrahydro-2-naphthalenyl)methanol] | 54% | – | – | – | – | –
11 | CCc1ccc2c(c1)CC(C)(CO)C2 (stereo not drawn) [Compound 8, 5-ethyl-2-methyl-2-indanmethanol] | 30% | – | – | – | – | –
12 | Cc1ccc2c(c1C)CC(C)(CO)C2 (stereo not drawn) [Compound 9, (2,4,5-trimethyl-2,3-dihydro-1H-inden-2-yl)methanol] | 78% | – | – | – | – | –
13 | CC(=O)OCC1(C)Cc2ccc(C)cc2C1 (stereo not drawn) [Compound 10, (2,5-dimethyl-2-indanyl)methyl acetate] | 42% | – | – | – | – | –
14 | CCC1(CO)Cc2ccc(C)cc2C1 (stereo not drawn) [Compound 11, 2-ethyl-5-methyl-2-indanmethanol] | 35% | – | – | – | – | –
15 | CC(C)c1ccc2c(c1)CC(C)(CO)C2 (stereo not drawn) [Compound 12, 5-isopropyl-2-methyl-2-indanmethanol] | 57% | – | – | – | – | –
16 | CC1(CO)Cc2ccc(C(C)(C)C)cc2C1 (stereo not drawn) [Compound 13, 5-tert-butyl-2-methyl-2-indanmethanol] | 54% | – | – | – | – | –
17 | Cc1cc2c(cc1C)CC(C)(CO)C2 [Compound 14, 2,5,6-trimethyl-2-indanmethanol] | 20% | – | – | – | – | –
18 | Cc1cccc2c1CC(C)(CO)C2 (stereo not drawn) [Compound 15, 2,4-dimethyl-2-indanmethanol] | 17% | – | – | – | – | –
19 | Cc1cc(C)c2c(c1)CC(C)(CO)C2 (stereo not drawn) [Compound 16, (2,4,6-trimethyl-2,3-dihydro-1H-inden-2-yl)methanol] | 14% | 6.2 ± 1.6 | 6.4 ± 1.3 | 2.6 ± 1.4 | 62 percentage | –
20 | COc1ccc2c(c1)CC(C)(CO)C2 (stereo not drawn) [Compound 17, (5-methoxy-2-methyl-2,3-dihydro-1H-inden-2-yl)methanol] | 23% | – | – | – | – | –
